From US4500526A, “Cephalosporin derivatives” (Bristol-Myers Company, priority 1983, dated 1985)
In brackets after ≈: the same amount, converted by molar mass. Read-outs that look alike come from different tables or passages of the source.

Columns and labels:
[1] = test system: Penicillinsensitive S. aureus (5 strains); assay: MIC, two-fold serial agar dilution, group (G+)-Ia; type: cell-based; conditions: Staphylococcus aureus, read-out: Geometric Mean of MIC
Description: (§1) In the primary evaluation of the compounds of this invention, the Minimum Inhibitory Concentrations (MIC's) of the compounds were determined by the two-fold serial agar dilution method in Mueller-Hinton agar against 32 strains of test organisms in six groups. The sample weights of the test compounds were adjusted according to the purity of each compound, so as to give a more accurate measure of the MIC's.
(G+)Ia: Penicillinsensitive S. aureus (5 strains)

[2] = test system: Penicillinresistant S. aureus (5 strains); assay: MIC, two-fold serial agar dilution, group (G+)-Ib; type: cell-based; conditions: Staphylococcus aureus, read-out: Geometric Mean of MIC
Description: as §1
(G+)Ib: Penicillinresistant S. aureus (5 strains)

[3] = test system: Cephalothinsensitive E. coli (2 strains), Kl. pneumoniae (1 strain) and Pr. mirabilis (2 strains); assay: MIC, two-fold serial agar dilution, group (G-)-Ia; type: cell-based; conditions: 5 strains, Mueller-Hinton agar, read-out: Geometric Mean of MIC
Description: as §1
(G-)Ia: Cephalothinsensitive E. coli (2 strains), Kl. pneumoniae (1
strain) and Pr. mirabilis (2 strains)

[4] = test system: Cephalothinresistant E. coli (3 strains) and Kl. pneumoniae (3 strains); assay: MIC, two-fold serial agar dilution, group (G-)-Ib; type: cell-based; conditions: Escherichia coli, read-out: Geometric Mean of MIC
Description: as §1
(G-)Ib: Cephalothinresistant E. coli (3 strains) and Kl. pneumoniae (3

[5] = test system: M. morganii (1 strain), Ent. cloacae (2 strains) and Ser. marcescens (2 strains); assay: MIC, two-fold serial agar dilution, group (G-)-II; type: cell-based; conditions: read-out: Geometric Mean of MIC
Description: as §1
(G-)II: M. morganii (1 strain), Ent. cloacae (2 strains) and Ser.

[6] = test system: Ps. aeruginosa (6 strains); assay: MIC, two-fold serial agar dilution, group (G-)-III; type: cell-based; conditions: Pseudomonas aeruginosa, read-out: Geometric Mean of MIC
Description: as §1
(G-)III: Ps. aeruginosa (6 strains)

[7] = Mouse blood levels after single intramuscular injection; type: in vivo, mice; conditions: in vivo, im, 20 mg/kg
Description: The absorption of some of the preferred compounds were determined in mice following a single intramuscular injection of the test compound (dissolved in 0.1M phosphate buffer; pH 7) at a dosage of 20 mg/kg. Blood samples were collected from the orbital sinuses into heparinized capillary tubes and assayed in Nutrient Agar (pH 6.6) using E. coli Ess-22-31 as the test organism. The blood levels at various time intervals, the half-life values (t1/2) and the areas under the curve (AUC) are shown in Table 2.

[8] = test system: H. influenzae (3) (ampicillin resistant); assay: In vitro activity against fastidious bacteria, two-fold serial agar dilution; type: cell-based; conditions: Haemophilus influenzae, read-out: Geometric Mean of MIC
Description: (§2) The in vitro activity of some of the preferred compounds against 30 strains of fastidious bacteria was determined by the two-fold serial agar dilution method in Gonococcus agar (GC agar), and the results are shown in Table 3.

[9] = test system: H. influenzae (7) (ampicillin sensitive); assay: as above; type: cell-based; conditions: Haemophilus influenzae, GC agar, 7 strains, read-out: Geometric Mean of MIC
Description: as §2

N. gonorrhoeae (5) = assay: as above; type: cell-based; conditions: Neisseria gonorrhoeae, read-out: Geometric Mean of MIC
Description: as §2

N. meningitidis (5) = assay: as above; type: cell-based; conditions: Neisseria meningitidis, read-out: Geometric Mean of MIC
Description: as §2

S. pneumoniae (5) = assay: as above; type: cell-based; conditions: Streptococcus pneumoniae; GC agar; read-out: Geometric Mean of MIC
Description: as §2

S. pyogenes (5 strains) = assay: as above; type: cell-based; conditions: Streptococcus pyogenes; GC agar; read-out: Geometric Mean of MIC
Description: as §2

E. coli Juhl = assay: Median protective dose in infected mice; type: in vivo; conditions: Escherichia coli, im, immediately after intraperitoneal challenge, read-out: PD50
Description: (§3) The median protective dose (PD50) of some of the preferred compounds against various microorganisms was determined in mice by intramuscular administration of the test compound immediately after an intraperitoneal bacterial challenge.

P. aeruginosa A9843 = assay: Median protective dose in infected mice; type: in vivo; conditions: Pseudomonas aeruginosa, im, immediately after intraperitoneal challenge, read-out: PD50
Description: as §3

S. aureus Smith = assay: Median protective dose in infected mice; type: in vivo; conditions: Staphylococcus aureus, im, immediately after intraperitoneal challenge, read-out: PD50
Description: as §3

[10] = (G+)-Ia, 5 strains, Mueller-Hinton agar
[11] = (G+)-Ib, 5 strains, Mueller-Hinton agar
[12] = (G-)-II, 5 strains, Mueller-Hinton agar
[13] = (G-)-III, 6 strains, Mueller-Hinton agar

SMILES	MIC [1, 10] [µg/mL]	MIC [2, 11] [µg/mL]	MIC [3] [µg/mL]	MIC [4] [µg/mL]	MIC [5, 12] [µg/mL]	AUC [7] [ng·h/mL]	concentration at 10 min [7] [ng/mL]	concentration at 20 min [7] [ng/mL]	concentration at 0.5 h [7] [ng/mL]	concentration at 40 min [7] [ng/mL]	concentration at 50 min [7] [ng/mL]	concentration at 1 h [7] [ng/mL]	concentration at 1.5 h [7] [ng/mL]	concentration at 2 h [7] [ng/mL]	half-life [7] [min]	ED50 (E. coli Juhl) [mg/kg]	ED50 (P. aeruginosa A9843) [mg/kg]	ED50 (S. aureus Smith) [mg/kg]	MIC [5] [µg/mL]	MIC [6, 13] [µg/mL]	further results
Nc1nc(/C(=N/OC2(C(=O)O)CCC2)C(=O)NC2C(=O)N3C(C(=O)[O-])=C(C[n+]4ccc5scnc5c4)CS[C@H]23)cs1 (stereo partly drawn) [Ie, 7-[(Z)-2-(2-Aminothiazol-4-yl)-2-(1-carboxycyclobut-1-oxyimino)-acetamido]-3-{(5-thiazolo[4,5-c]pyridinio)methyl}-3-cephem-4-carboxylate]	2.2 (≈ 3.57 µM)	4.4 (≈ 7.15 µM)	0.023 (≈ 0.0374 µM)	0.5 (≈ 0.812 µM)	0.34 (≈ 0.552 µM)	7900	13000	12000	7500	4300	3000	2600	510	150	16	0.08	1.8	3.1			MIC [6]: 1.3 µg/mL (≈ 2.11 µM); MIC [8]: 0.1 µg/mL (≈ 0.162 µM); MIC [9]: 0.1 µg/mL (≈ 0.162 µM); MIC (N. gonorrhoeae (5)): 0.1 µg/mL (≈ 0.162 µM); MIC (N. meningitidis (5)): 0.1 µg/mL (≈ 0.162 µM); MIC (S. pneumoniae (5)): 0.2 µg/mL (≈ 0.325 µM); MIC (S. pyogenes (5 strains)): 0.2 µg/mL (≈ 0.325 µM)
CO/N=C(\C(=O)NC1C(=O)N2C(C(=O)[O-])=C(C[n+]3ccc4sc(NC(=O)OC)nc4c3)CS[C@H]12)c1csc(N)n1 (stereo partly drawn) [Is, 7-[(Z)-2-(2-Aminothiazol-4-yl)-2-methoxyiminoacetamido]-3-(2-methoxycarbonylamino-5-thiazolo[4,5-c]pyridinio)methyl-3-cephem-4-carboxylate]	0.46 (≈ 0.761 µM)	0.8 (≈ 1.32 µM)	0.038 (≈ 0.0628 µM)	0.69 (≈ 1.14 µM)		13000	19000	18000	14000	6700	4600	4600	2200	1100	26	0.018	10	1.2	0.6 (≈ 0.992 µM)	14 (≈ 23.2 µM)	
CO/N=C(\C(=O)NC1C(=O)N2C(C(=O)[O-])=C(C[n+]3ccc4sc(NC(=O)N5CCCC5)nc4c3)CS[C@H]12)c1csc(N)n1 (stereo partly drawn) [It, 7-[(Z)-2-(2-Aminothiazol-4-yl)-2-methoxyiminoacetamido]-3-[2-(pyrrolidin-1-ylcarbonylamino)-5-thiazolo[4,5-c]pyridinio]methyl-3-cephem-4-carboxylate]	0.53 (≈ 0.823 µM)		0.3 (≈ 0.466 µM)	0.92 (≈ 1.43 µM)	2.8 (≈ 4.35 µM)	13000	19000	18000	11000	7800	6600	5400	2100	890	24	0.2	> 25	1.9		34 (≈ 52.8 µM)	MIC [2]: 1.6 µg/mL (≈ 2.49 µM)
CO/N=C(\C(=O)NC1C(=O)N2C(C(=O)[O-])=C(C[n+]3ccc4sc(N(C)C)nc4c3)CS[C@H]12)c1csc(N)n1 (stereo partly drawn) [Iu, 7-[(Z)-2-(2-Aminothiazol-4-yl)-2-methoxyiminoacetamido]-3-(2-dimethylamino-5-thiazolo[4,5-c]pyridinio)methyl-3-cephem-4-carboxylate]	0.46 (≈ 0.8 µM)	0.8 (≈ 1.39 µM)	0.012 (≈ 0.0209 µM)	0.11 (≈ 0.191 µM)		9800	18000	13000	9600	5500	3400	2600	1000	340	19	0.013	4.6	0.48	0.23 (≈ 0.4 µM)	6.3 (≈ 11 µM)	
CO/N=C(\C(=O)NC1C(=O)N2C(C(=O)[O-])=C(C[n+]3ccc4sc(C(=O)O)nc4c3)CS[C@H]12)c1csc(N)n1 (stereo partly drawn) [Iv, 7-[(Z)-2-(2-Aminothiazol-4-yl)-2-methoxyiminoacetamido]-3-(2-carboxy-5-thiazolo[4,5-c]pyridinio)methyl-3-cephem-4-carboxylate]		3.1 (≈ 5.39 µM)	0.014 (≈ 0.0243 µM)	1.2 (≈ 2.08 µM)	0.69 (≈ 1.2 µM)	10000	17000	16000	10000	5900	4300	3000	1200	< 200	19	0.024	21	2.6		5.7 (≈ 9.9 µM)	MIC [1]: 1.6 µg/mL (≈ 2.78 µM)
CO/N=C(\C(=O)NC1C(=O)N2C(C(=O)[O-])=C(C[n+]3ccc4sc(C=O)nc4c3)CSC12)c1csc(N)n1 (stereo not drawn) [Iw, 7-[(Z)-2-(2-Aminothiazol-4-yl)-2-methoxyiminoacetamido]-3-(2-formylthiazolo[4,5-c]pyridinio)methyl-3-cephem-4-carboxylate]	0.53 (≈ 0.947 µM)		0.016 (≈ 0.0286 µM)	0.17 (≈ 0.304 µM)		11000	20000	19000	8900	6600	3900	2000	1000	480	19	0.015	4.7	1.3	0.2 (≈ 0.357 µM)	1.7 (≈ 3.04 µM)	MIC [2]: 1.6 µg/mL (≈ 2.86 µM)
